Format in all cases: cell-based, human
For experiment [1], the system named is PKC delta. The experiment in a line: Phosphorylation of PKC delta at Y311 in LNCaP cells (western blot). The protocol: FIGS. 14A-C show the induction of cFos and phosphorylation of PKC at Y311 in LNCaP cells. […] The proteins from the lysates were separated by 10% SDS-PAGE, electroblotted to nitrocellulose membranes and probed with anti-cFos primary and anti-rabbit secondary antibodies, followed by ECL visualization. Data are representative of four independent experiments. […] The cFos signal was normalized to the β-actin signal to correct for loading and the response induced by 100 nM PMA at 2 hrs was taken as 100%. Data represent the means+SEM of four independent experiments. […] Data represent the means+SEM of three independent experiments.
LNCaP cells treated for 48 hours with the different drugs or with DMSO as control were washed and re-suspended in phosphate buffered saline. Yo-Pro-1 (Invitrogen, Carlsbad, Calif.) was added to a final concentration of 1 μM and the cells were incubated for 20 min at 4° C. in the dark. 7-Aminoactinomycin D (7-AAD) (Invitrogen, Carlsbad, Calif.) was then added at a 5 μg/mL final concentration 10 minutes before analysis by flow cytometry using the FACSCalibur system (Becton Dickinson, Mountain View, Calif.). Data were analyzed with FlowJo 7 (Tree Star Inc., Ashland, Oreg.). The Yo-Pro-1 positive cells were considered apoptotic and were expressed as % of total cells. […]

Experiment [2] has as its system U937 cells. The experiment in a line: Attachment of U937 cells. To be noted: for attachment of U937 cells: compound alone, 72 hours. As to the method: (§1) U937 cells (Sundstrom, C.; Nilsson, K.: Establishment and characterization of a human histiocytic lymphoma cell line (U-937). Int. J. Cancer 1976, 17: 565-577.), purchased from ATCC (Manassas, Va.) and cultured in RPMI-1640 medium supplemented with 10% FBS (ATCC, Manassas, Va.), were plated in 35 mm dishes at a density of 2×10^5 living cells/ml and treated with different concentrations of the drugs or DMSO. After 72 hours, the number of cells in the supernatant (non-attached cells) and the number of attached cells (after trypsinization) were counted using a Beckman particle counter (Beckman Coulter Inc., Fullerton, Calif.). The number of attached cells is expressed as percent of total cells (FIGS. 8-10).
U937 cells were treated with PMA (0.1-100 nM), bryostatin 1 (1-1000 nM), the indicated compound (1-1000 nM), 10 nM PMA with different concentrations of bryostatin 1 (1-1000 nM) or 10 nM PMA with different concentrations of indicated compound (1-1000 nM) for 72 hours. The number of attached cells and total cells were counted and the attached cells were graphed as percent of total cells. The bars and error bars represent the average and the standard error of the mean of five independent experiment (FIGS. 8-10).
(§2) U937 cells (Sundstrom and Nilsson, 1976), purchased from ATCC (Manassas, Va.) and cultured in RPMI-1640 medium supplemented with 10% FBS (ATCC, Manassas, Va.), were plated in 35 mm dishes at a density of 1×10^5 living cells/ml and treated with different concentrations of the drugs or DMSO. After 72 hours, the number of cells in the supernatant (non-attached cells) and the number of attached cells (after trypsinization) were counted using a particle counter. The number of attached cells is expressed as percent of total cells.
U937 cells were treated with PMA (0.01-100 nM), bryostatin1 (0.1-1000 nM), analogue 12 (MERLE 28) (0.1-1000 nM), 10 nM PMA with different concentrations of bryostatin 1 (0.1-1000 nM) or 10 nM PMA with different concentrations of analogue 12 (0.1-1000 nM). The number of attached cells and total cells were counted and the attached cells were graphed as percent of total cells. The bars and error bars represent the average and the standard error of the mean of at least three independent experiments.
(§3) U-937 cells (Sundstrom and Nilsson, 1976), purchased from ATCC (Manassas, Va.) and cultured in RPMI-1640 medium supplemented with 10% FBS (ATCC, Manassas, Va.), were plated in 35 mm dishes at a density of 1×10^5 living cells/ml and treated with different concentrations of the drugs or DMSO. After 72 hours, the number of cells in the supernatant (non-attached cells) and the number of attached cells (after trypsinization) were counted using a particle counter. The number of attached cells is expressed as percent of total cells.
U-937 cells were treated with PMA (0.1-100 nM), bryostatin 1 (1-1000 nM), the indicated compound (1-1000 nM), 10 nM PMA with different concentrations of bryostatin 1 (1-1000 nM) or 10 nM PMA with different concentrations of indicated compound (1-1000 nM) for 72 hours. The number of attached cells and total cells were counted and the attached cells were graphed as percent of total cells. The bars and error bars represent the average and the standard error of the mean of at least three independent experiments.

Experiment [3] deals with U937 cells. The experiment is described as follows: Inhibition of U937 cell proliferation. The following applies: for inhibition of U937 cell proliferation: compound alone. The protocol:
as §1
U937 cells were treated with PMA (0.1-100 nM), bryostatin 1 (1-1000 nM), the indicated compound (1-1000 nM), 10 nM PMA with different concentrations of bryostatin 1 (1-1000 nM) or 10 nM PMA with different concentrations of indicated compound (1-1000 nM). The number of attached and non-attached cells was counted and the number of total cells was expressed as % of control. The bars and error bars represent the average and the standard error of the mean of five independent experiments (FIGS. 8-10).
as §2
U937 cells were treated with PMA (0.01-100 nM), bryostatin1 (0.1-1000 nM), analogue 12 (0.1-1000 nM), 10 nM PMA with different concentrations of bryostatin 1 (0.1-1000 nM) or 10 nM PMA with different concentrations of analogue 12 (0.1-1000 nM). The numbers of attached and non-attached cells were counted and the number of total cells was expressed as % of control. The bars and error bars represent the average and the standard error of the mean of at least three independent experiments.
as §3
U-937 cells were treated with PMA (0.1-100 nM), bryostatin 1 (1-1000 nM), the indicated compound (1-1000 nM), 10 nM PMA with different concentrations of bryostatin 1 (1-1000 nM) or 10 nM PMA with different concentrations of indicated compound (1-1000 nM). The number of attached and non-attached cells was counted and the number of total cells was expressed as % of control. The bars and error bars represent the average and the standard error of the mean of at least three independent experiments.

The mark [4] stands for this setting: 10 nM PMA with different concentrations of compound.

In the case of `CCCCCCCCCCCCCC(=O)O[C@@H]1[C@@H](C)[C@@]2(O)[C@@H](C=C(CO)C[C@]3(O)C(=O)C(C)=C[C@@H]23)[C@@H]2C(C)(C)[C@]12OC(C)=O` [PMA], the “phosphorylation of PKC delta at Y311” value in experiment [1] is given as “rapid phosphorylation”. Further, the “attachment of U937 cells” value in experiment [2] is “induces attachment”. Also, in experiment [3], the “inhibition of U937 cell proliferation” value was “inhibits cell proliferation”.
For `CCC/C=C/C=C/C(=O)O[C@H]1/C(=C/C(=O)OC)C[C@H]2C[C@H]([C@@H](C)O)OC(=O)C[C@H](O)C[C@@H]3C[C@H](OC(C)=O)C(C)(C)[C@](O)(C[C@@H]4C/C(=C/C(=O)OC)C[C@H](/C=C/C(C)(C)[C@]1(O)O2)O4)O3` [bryostatin 1], the “phosphorylation of PKC delta at Y311” value in experiment [1] is “only very weak phosphorylation”. For the same compound, the “block of PMA-induced attachment of U937 cells” value in experiment [2] (setting [4]) is on record as “blocks the effect of the phorbol ester in a dose-dependent manner”. Besides, the results for the “attachment of U937 cells” value in experiment [2] and in experiment [2] (listed as Bryostatin 1) were “much diminished effect” and “much less effect on either response”, respectively. In addition, the “block of PMA inhibition of U937 cell proliferation” value in experiment [3] (setting [4]) is recorded as “able to block the effect of PMA in a dose dependent manner”. Also, the “inhibition of U937 cell proliferation” value in experiment [3] is “not strongly antiproliferative”; in experiment [3] (listed as Bryostatin 1) it was “much less effect on either response”.

The values above are taken from US9096550B2, “Bryostatin analogues and methods of making and using thereof” (UNIVERSITY OF UTAH RESEARCH FOUNDATION, priority 2008, dated 2015).
